Laboratory results published in the supplement of paper PMC10307832.

Assays:
Experiment in all cases: relative viability (nuclei count vs DMSO), 5 days (fraction); higher = more cells survive
Neratinib + Linsitinib = compound: CCOc1cc2ncc(C#N)c(Nc3ccc(OCc4ccccn4)c(Cl)c3)c2cc1NC(=O)/C=C/CN(C)C [Neratinib] + C[C@]1(O)C[C@@H](c2nc(-c3ccc4ccc(-c5ccccc5)nc4c3)c3c(N)nccn32)C1 [Linsitinib] (partner 1 µM)
How it was run: (§1)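 Nuclei were stained with Hoechst during a one-step fixation (final 0.05% Triton X-100, 1% formaldehyde, 1 ug/ml Hoechst) carried out 5 days after dosing, then counted on 4× images. The cells, lung cancer lines in 1536-well plates, had been dosed by pin tool the day after seeding with one drug alone or a fixed anchor-drug dose plus five library-drug doses (not always all listed) in √10 steps. Relative viability is the nuclei count in treated wells divided by that in vehicle wells, and each value is the median of duplicate plates.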

Neratinib + Pemetrexed = compound: CCOc1cc2ncc(C#N)c(Nc3ccc(OCc4ccccn4)c(Cl)c3)c2cc1NC(=O)/C=C/CN(C)C [Neratinib] + Nc1nc2[nH]cc(CCc3ccc(C(=O)N[C@@H](CCC(=O)O)C(=O)O)cc3)c2c(=O)[nH]1 [Pemetrexed] (partner 0.2 µM)
How it was run: as §1

Neratinib + Vorinostat = compound: CCOc1cc2ncc(C#N)c(Nc3ccc(OCc4ccccn4)c(Cl)c3)c2cc1NC(=O)/C=C/CN(C)C [Neratinib] + O=C(CCCCCCC(=O)Nc1ccccc1)NO [Vorinostat] (partner 1 µM)
How it was run: as §1

Neratinib + Olaparib = compound: CCOc1cc2ncc(C#N)c(Nc3ccc(OCc4ccccn4)c(Cl)c3)c2cc1NC(=O)/C=C/CN(C)C [Neratinib] + O=C(c1cc(Cc2n[nH]c(=O)c3ccccc23)ccc1F)N1CCN(C(=O)C2CC2)CC1 [Olaparib] (partner 8 µM)
How it was run: as §1

NCI-H1755 was tested, and the relative viability (Neratinib + Linsitinib; first compound 0.01 µM) was 1.04, the relative viability (Neratinib + Linsitinib; first compound 0.03162 µM) was 0.988 and the relative viability (Neratinib + Linsitinib; first compound 0.1 µM) was 0.911. The relative viability (Neratinib + Linsitinib; first compound 0.3162 µM) was 1.05, the relative viability (Neratinib + Linsitinib; first compound 1 µM) was 0.775 and the relative viability (Neratinib + Pemetrexed; first compound 0.01 µM) was 0.496. The relative viability (Neratinib + Pemetrexed; first compound 0.03162 µM) was 0.496, the relative viability (Neratinib + Pemetrexed; first compound 0.1 µM) was 0.379 and the relative viability (Neratinib + Pemetrexed; first compound 0.3162 µM) was 0.563. It also gave a relative viability (Neratinib + Pemetrexed; first compound 1 µM) of 0.417, a relative viability (Neratinib + Vorinostat; first compound 0.01 µM) of 0.828 and a relative viability (Neratinib + Vorinostat; first compound 0.03162 µM) of 0.695. The relative viability (Neratinib + Vorinostat; first compound 0.1 µM) was 0.658, the relative viability (Neratinib + Vorinostat; first compound 0.3162 µM) was 0.916 and the relative viability (Neratinib + Vorinostat; first compound 1 µM) was 0.794. It also gave a relative viability (Neratinib + Olaparib; first compound 0.01 µM) of 0.925, a relative viability (Neratinib + Olaparib; first compound 0.03162 µM) of 0.922 and a relative viability (Neratinib + Olaparib; first compound 0.1 µM) of 0.807. It also gave a relative viability (Neratinib + Olaparib; first compound 0.3162 µM) of 0.918 and a relative viability (Neratinib + Olaparib; first compound 1 µM) of 0.824.

NCI-H1793 showed a relative viability (Neratinib + Linsitinib; first compound 0.01 µM) of 0.863, a relative viability (Neratinib + Linsitinib; first compound 0.03162 µM) of 1.03 and a relative viability (Neratinib + Linsitinib; first compound 0.1 µM) of 0.494. It also gave a relative viability (Neratinib + Linsitinib; first compound 0.3162 µM) of 0.596, a relative viability (Neratinib + Linsitinib; first compound 1 µM) of 0.364 and a relative viability (Neratinib + Pemetrexed; first compound 0.01 µM) of 0.92. The relative viability (Neratinib + Pemetrexed; first compound 0.03162 µM) was 0.778, the relative viability (Neratinib + Pemetrexed; first compound 0.1 µM) was 0.637 and the relative viability (Neratinib + Pemetrexed; first compound 0.3162 µM) was 0.666. The relative viability (Neratinib + Pemetrexed; first compound 1 µM) was 0.414, the relative viability (Neratinib + Vorinostat; first compound 0.01 µM) was 0.765 and the relative viability (Neratinib + Vorinostat; first compound 0.03162 µM) was 0.849. It also gave a relative viability (Neratinib + Vorinostat; first compound 0.1 µM) of 0.473, a relative viability (Neratinib + Vorinostat; first compound 0.3162 µM) of 0.487 and a relative viability (Neratinib + Vorinostat; first compound 1 µM) of 0.355. The relative viability (Neratinib + Olaparib; first compound 0.01 µM) was 1, the relative viability (Neratinib + Olaparib; first compound 0.03162 µM) was 0.855 and the relative viability (Neratinib + Olaparib; first compound 0.1 µM) was 0.551. For the same cell line, the relative viability (Neratinib + Olaparib; first compound 0.3162 µM) was 0.345 and the relative viability (Neratinib + Olaparib; first compound 1 µM) was 0.217.

For NCI-H1915, the relative viability (Neratinib + Linsitinib; first compound 0.01 µM) was 1.11, the relative viability (Neratinib + Linsitinib; first compound 0.03162 µM) was 1.13 and the relative viability (Neratinib + Linsitinib; first compound 0.3162 µM) was 1.09. For the same cell line, the relative viability (Neratinib + Linsitinib; first compound 1 µM) was 0.874, the relative viability (Neratinib + Pemetrexed; first compound 0.01 µM) was 0.495 and the relative viability (Neratinib + Pemetrexed; first compound 0.03162 µM) was 0.495. It also gave a relative viability (Neratinib + Pemetrexed; first compound 0.1 µM) of 0.44, a relative viability (Neratinib + Pemetrexed; first compound 0.3162 µM) of 0.412 and a relative viability (Neratinib + Pemetrexed; first compound 1 µM) of 0.516. It also gave a relative viability (Neratinib + Vorinostat; first compound 0.01 µM) of 0.6, a relative viability (Neratinib + Vorinostat; first compound 0.03162 µM) of 0.553 and a relative viability (Neratinib + Vorinostat; first compound 0.1 µM) of 0.507. For the same cell line, the relative viability (Neratinib + Vorinostat; first compound 0.3162 µM) was 0.439, the relative viability (Neratinib + Vorinostat; first compound 1 µM) was 0.545 and the relative viability (Neratinib + Olaparib; first compound 0.01 µM) was 0.232. For the same cell line, the relative viability (Neratinib + Olaparib; first compound 0.1 µM) was 0.221, the relative viability (Neratinib + Olaparib; first compound 0.3162 µM) was 0.245 and the relative viability (Neratinib + Olaparib; first compound 1 µM) was 0.252.

NCI-H1944 was tested, and the relative viability (Neratinib + Linsitinib; first compound 0.01 µM) was 1.28, the relative viability (Neratinib + Linsitinib; first compound 0.03162 µM) was 1.08 and the relative viability (Neratinib + Linsitinib; first compound 0.1 µM) was 0.93. For the same cell line, the relative viability (Neratinib + Linsitinib; first compound 0.3162 µM) was 0.645, the relative viability (Neratinib + Linsitinib; first compound 1 µM) was 0.435 and the relative viability (Neratinib + Pemetrexed; first compound 0.01 µM) was 0.642. The relative viability (Neratinib + Pemetrexed; first compound 0.03162 µM) was 0.563, the relative viability (Neratinib + Pemetrexed; first compound 0.3162 µM) was 0.555 and the relative viability (Neratinib + Pemetrexed; first compound 1 µM) was 0.439. For the same cell line, the relative viability (Neratinib + Vorinostat; first compound 0.01 µM) was 0.657, the relative viability (Neratinib + Vorinostat; first compound 0.03162 µM) was 0.544 and the relative viability (Neratinib + Vorinostat; first compound 0.1 µM) was 0.474. It also gave a relative viability (Neratinib + Vorinostat; first compound 0.3162 µM) of 0.501, a relative viability (Neratinib + Vorinostat; first compound 1 µM) of 0.456 and a relative viability (Neratinib + Olaparib; first compound 0.01 µM) of 0.45. For the same cell line, the relative viability (Neratinib + Olaparib; first compound 0.03162 µM) was 0.406, the relative viability (Neratinib + Olaparib; first compound 0.1 µM) was 0.229 and the relative viability (Neratinib + Olaparib; first compound 0.3162 µM) was 0.352. For the same cell line, the relative viability (Neratinib + Olaparib; first compound 1 µM) was 0.319.

NCI-H1975 gave a relative viability (Neratinib + Linsitinib; first compound 0.01 µM) of 1.13, a relative viability (Neratinib + Linsitinib; first compound 0.03162 µM) of 1.12 and a relative viability (Neratinib + Linsitinib; first compound 0.1 µM) of 0.78. The relative viability (Neratinib + Linsitinib; first compound 0.3162 µM) was 0.285, the relative viability (Neratinib + Linsitinib; first compound 1 µM) was 0.223 and the relative viability (Neratinib + Pemetrexed; first compound 0.01 µM) was 0.295. For the same cell line, the relative viability (Neratinib + Pemetrexed; first compound 0.03162 µM) was 0.336, the relative viability (Neratinib + Pemetrexed; first compound 0.1 µM) was 0.284 and the relative viability (Neratinib + Pemetrexed; first compound 0.3162 µM) was 0.25. For the same cell line, the relative viability (Neratinib + Pemetrexed; first compound 1 µM) was 0.178, the relative viability (Neratinib + Vorinostat; first compound 0.01 µM) was 0.764 and the relative viability (Neratinib + Vorinostat; first compound 0.03162 µM) was 0.822. It also gave a relative viability (Neratinib + Vorinostat; first compound 0.1 µM) of 0.723, a relative viability (Neratinib + Vorinostat; first compound 0.3162 µM) of 0.354 and a relative viability (Neratinib + Vorinostat; first compound 1 µM) of 0.264. For the same cell line, the relative viability (Neratinib + Olaparib; first compound 0.01 µM) was 0.917, the relative viability (Neratinib + Olaparib; first compound 0.03162 µM) was 0.96 and the relative viability (Neratinib + Olaparib; first compound 0.1 µM) was 0.644. It also gave a relative viability (Neratinib + Olaparib; first compound 0.3162 µM) of 0.43 and a relative viability (Neratinib + Olaparib; first compound 1 µM) of 0.18.

NCI-H1993 gave a relative viability (Neratinib + Linsitinib; first compound 0.01 µM) of 0.833, a relative viability (Neratinib + Linsitinib; first compound 0.03162 µM) of 0.659 and a relative viability (Neratinib + Linsitinib; first compound 0.1 µM) of 0.71. It also gave a relative viability (Neratinib + Linsitinib; first compound 0.3162 µM) of 0.648, a relative viability (Neratinib + Linsitinib; first compound 1 µM) of 0.838 and a relative viability (Neratinib + Pemetrexed; first compound 0.01 µM) of 0.398. For the same cell line, the relative viability (Neratinib + Pemetrexed; first compound 0.03162 µM) was 0.543, the relative viability (Neratinib + Pemetrexed; first compound 0.1 µM) was 0.533 and the relative viability (Neratinib + Pemetrexed; first compound 0.3162 µM) was 0.564. It also gave a relative viability (Neratinib + Pemetrexed; first compound 1 µM) of 0.486, a relative viability (Neratinib + Vorinostat; first compound 0.01 µM) of 1.07 and a relative viability (Neratinib + Vorinostat; first compound 0.03162 µM) of 0.795. It also gave a relative viability (Neratinib + Vorinostat; first compound 0.1 µM) of 0.423, a relative viability (Neratinib + Vorinostat; first compound 0.3162 µM) of 0.676 and a relative viability (Neratinib + Vorinostat; first compound 1 µM) of 0.574. The relative viability (Neratinib + Olaparib; first compound 0.01 µM) was 1.33, the relative viability (Neratinib + Olaparib; first compound 0.03162 µM) was 1.06 and the relative viability (Neratinib + Olaparib; first compound 0.1 µM) was 0.996. For the same cell line, the relative viability (Neratinib + Olaparib; first compound 0.3162 µM) was 0.704.

With NCI-H2009 the relative viability (Neratinib + Linsitinib; first compound 0.01 µM) was 1.2, the relative viability (Neratinib + Linsitinib; first compound 0.03162 µM) was 1.15 and the relative viability (Neratinib + Linsitinib; first compound 0.1 µM) was 0.85. The relative viability (Neratinib + Linsitinib; first compound 0.3162 µM) was 1.18, the relative viability (Neratinib + Pemetrexed; first compound 0.01 µM) was 1.09 and the relative viability (Neratinib + Pemetrexed; first compound 0.1 µM) was 1.06. For the same cell line, the relative viability (Neratinib + Pemetrexed; first compound 0.3162 µM) was 1.06, the relative viability (Neratinib + Pemetrexed; first compound 1 µM) was 1.01 and the relative viability (Neratinib + Vorinostat; first compound 0.01 µM) was 0.739. The relative viability (Neratinib + Vorinostat; first compound 0.03162 µM) was 0.772, the relative viability (Neratinib + Vorinostat; first compound 0.1 µM) was 0.777 and the relative viability (Neratinib + Vorinostat; first compound 0.3162 µM) was 0.754. It also gave a relative viability (Neratinib + Vorinostat; first compound 1 µM) of 0.644, a relative viability (Neratinib + Olaparib; first compound 0.01 µM) of 0.691 and a relative viability (Neratinib + Olaparib; first compound 0.03162 µM) of 0.752. The relative viability (Neratinib + Olaparib; first compound 0.1 µM) was 0.65, the relative viability (Neratinib + Olaparib; first compound 0.3162 µM) was 0.689 and the relative viability (Neratinib + Olaparib; first compound 1 µM) was 0.732.

Work on NCI-H2023 yielded a relative viability (Neratinib + Linsitinib; first compound 0.01 µM) of 0.658, a relative viability (Neratinib + Linsitinib; first compound 0.03162 µM) of 0.675 and a relative viability (Neratinib + Linsitinib; first compound 0.1 µM) of 0.465. The relative viability (Neratinib + Linsitinib; first compound 0.3162 µM) was 0.446, the relative viability (Neratinib + Linsitinib; first compound 1 µM) was 0.303 and the relative viability (Neratinib + Pemetrexed; first compound 0.01 µM) was 0.251. It also gave a relative viability (Neratinib + Pemetrexed; first compound 0.03162 µM) of 0.221, a relative viability (Neratinib + Pemetrexed; first compound 0.1 µM) of 0.21 and a relative viability (Neratinib + Pemetrexed; first compound 0.3162 µM) of 0.221. It also gave a relative viability (Neratinib + Pemetrexed; first compound 1 µM) of 0.212, a relative viability (Neratinib + Vorinostat; first compound 0.01 µM) of 0.937 and a relative viability (Neratinib + Vorinostat; first compound 0.03162 µM) of 0.532. It also gave a relative viability (Neratinib + Vorinostat; first compound 0.1 µM) of 0.495, a relative viability (Neratinib + Vorinostat; first compound 0.3162 µM) of 0.602 and a relative viability (Neratinib + Vorinostat; first compound 1 µM) of 0.375. It also gave a relative viability (Neratinib + Olaparib; first compound 0.01 µM) of 0.448, a relative viability (Neratinib + Olaparib; first compound 0.03162 µM) of 0.415 and a relative viability (Neratinib + Olaparib; first compound 0.1 µM) of 0.365. The relative viability (Neratinib + Olaparib; first compound 0.3162 µM) was 0.42 and the relative viability (Neratinib + Olaparib; first compound 1 µM) was 0.386.
